For one compound, IC50, Activity and inhibition results are on record in ChEMBL document CHEMBL5321262, “Antiviral Activity of Cannabidiolic Acid and Its Methyl Ester against SARS-CoV-2” (J Nat Prod, 2023).

Active and inactive are the calls of the source. The calls are words filed in the database; no cut-off is given here.

The subject of experiment [1] is SARS-CoV-2. Put plainly: Antiviral activity against SARS-CoV-2 variant Omicron BA.5 infected in African green monkey Vero E6 cells assessed as reduction in virus titers of progeny virus in supernatant measured after 72 hrs by CPE assay. In kind it is functional, organism-based. Conditions: Severe acute respiratory syndrome coronavirus 2, Omicron BA.5, Vero C1008, 72 h.

In experiment [2] the test system is SARS-CoV-2. Nature of the experiment: Antiviral activity against SARS-CoV-2 variant Omicron BA.4 infected in African green monkey Vero E6 cells assessed as reduction in virus titers of progeny virus in supernatant measured after 72 hrs by CPE assay. It counts as functional, organism-based. The note with it: Severe acute respiratory syndrome coronavirus 2, Omicron BA.4, Vero C1008, 72 h.

Experiment [3] deals with SARS-CoV-2. Put plainly: Antiviral activity against SARS-CoV-2 variant Omicron BA.3 infected in African green monkey Vero E6 cells assessed as reduction in virus titers of progeny virus in supernatant measured after 72 hrs by CPE assay. Conditions: Severe acute respiratory syndrome coronavirus 2, Omicron BA.3, Vero C1008, 72 h. It counts as functional, organism-based.
For experiment [4], the system named is SARS-CoV-2. Nature of the experiment: Antiviral activity against SARS-CoV-2 variant Omicron BA.2 infected in African green monkey Vero E6 cells assessed as reduction in virus titers of progeny virus in supernatant measured after 72 hrs by CPE assay. It counts as functional, organism-based. Conditions: Severe acute respiratory syndrome coronavirus 2, Omicron BA.2, Vero C1008, 72 h.

Experiment [5] relates to SARS-CoV-2. Put plainly: Antiviral activity against SARS-CoV-2 variant Omicron BA.1 infected in African green monkey Vero E6 cells assessed as reduction in virus titers of progeny virus in supernatant measured after 72 hrs by CPE assay. In kind it is functional, organism-based. The note with it: Severe acute respiratory syndrome coronavirus 2, Omicron BA.1, Vero C1008, 72 h.

For experiment [6], the system named is SARS-CoV-2. Nature of the experiment: Antiviral activity against SARS-CoV-2 variant Delta infected in African green monkey Vero E6 cells assessed as reduction in virus titers of progeny virus in supernatant measured after 72 hrs by CPE assay. It counts as functional, organism-based. Conditions: Severe acute respiratory syndrome coronavirus 2, Delta, Vero C1008, 72 h.

For experiment [7], the system named is SARS-CoV-2. Nature of the experiment: Antiviral activity against SARS-CoV-2 variant Delta infected in African green monkey Vero E6 cells assessed as reduction in virus-induced cytopathic effect at 75 uM preincubated with virus for 1 hr followed by infection with cells and measured after 72 hrs by microscopic analysis. It counts as functional, organism-based. Conditions: Severe acute respiratory syndrome coronavirus 2, time 73.0 hrs. On the technique in general: Protection from cytopathic effect is a common read-out in antiviral testing.

The test system of experiment [8] is SARS-CoV-2. Nature of the experiment: Antiviral activity against SARS-CoV-2 variant Omicron BA.1 infected in African green monkey Vero E6 cells assessed as reduction in virus-induced cytopathic effect at 75 uM preincubated with virus for 1 hr followed by infection with cells and measured after 72 hrs by microscopic analysis. Conditions: Severe acute respiratory syndrome coronavirus 2, time 73.0 hrs. It counts as functional, organism-based.

Experiment [9] relates to SARS-CoV-2. Nature of the experiment: Antiviral activity against SARS-CoV-2 variant Omicron BA.2 infected in African green monkey Vero E6 cells assessed as reduction in virus-induced cytopathic effect at 75 uM preincubated with virus for 1 hr followed by infection with cells and measured after 72 hrs by microscopic analysis. It counts as functional, organism-based. The note with it: Severe acute respiratory syndrome coronavirus 2, time 73.0 hrs.

For experiment [10], the system named is SARS-CoV-2. Put plainly: Antiviral activity against SARS-CoV-2 variant Omicron BA.3 infected African green monkey Vero E6 cells assessed as reduction in virus-induced cytopathic effect at 75 uM preincubated with virus for 1 hr followed by infection with cells and measured after 72 hrs by microscopic analysis. It counts as functional, organism-based. The note with it: Severe acute respiratory syndrome coronavirus 2, time 73.0 hrs.

The test system of experiment [11] is SARS-CoV-2. Nature of the experiment: Antiviral activity against SARS-CoV-2 variant Omicron BA.4 infected African green monkey Vero E6 cells assessed as reduction in virus-induced cytopathic effect at 75 uM preincubated with virus for 1 hr followed by infection with cells and measured after 72 hrs by microscopic analysis. The note with it: Severe acute respiratory syndrome coronavirus 2, time 73.0 hrs. It counts as functional, organism-based.

Experiment [12] has as its system SARS-CoV-2. Nature of the experiment: Antiviral activity against SARS-CoV-2 variant Omicron BA.5 infected African green monkey Vero E6 cells assessed as reduction in virus-induced cytopathic effect at 75 uM preincubated with virus for 1 hr followed by infection with cells and measured after 72 hrs by microscopic analysis. In kind it is functional, organism-based. Conditions: Severe acute respiratory syndrome coronavirus 2, time 73.0 hrs.

Experiment [13] concerns SARS-CoV-2. Put plainly: Antiviral activity against SARS-CoV-2 variant Delta infected in African green monkey Vero E6 cells assessed as inhibition of virus titers of progeny virus in supernatant at 75 uM measured after 72 hrs by CPE assay relative to control. In kind it is functional. The note with it: Severe acute respiratory syndrome coronavirus 2, Delta, Vero C1008.
The test system of experiment [14] is SARS-CoV-2. Put plainly: Antiviral activity against SARS-CoV-2 variant Omicron BA.1 infected in African green monkey Vero E6 cells assessed as inhibition of virus titers of progeny virus in supernatant at 75 uM measured after 72 hrs by CPE assay relative to control. It counts as functional. Conditions: Severe acute respiratory syndrome coronavirus 2, Omicron BA.1, Vero C1008.

The subject of experiment [15] is SARS-CoV-2. Put plainly: Antiviral activity against SARS-CoV-2 variant Omicron BA.2 infected in African green monkey Vero E6 cells assessed as inhibition of virus titers of progeny virus in supernatant at 75 uM measured after 72 hrs by CPE assay relative to control. The note with it: Severe acute respiratory syndrome coronavirus 2, Omicron BA.2, Vero C1008. In kind it is functional.

Experiment [16] has as its system SARS-CoV-2. Nature of the experiment: Antiviral activity against SARS-CoV-2 variant Omicron BA.3 infected in African green monkey Vero E6 cells assessed as inhibition of virus titers of progeny virus in supernatant at 75 uM measured after 72 hrs by CPE assay relative to control. In kind it is functional. The note with it: Severe acute respiratory syndrome coronavirus 2, Omicron BA.3, Vero C1008.

The test system of experiment [17] is SARS-CoV-2. Nature of the experiment: Antiviral activity against SARS-CoV-2 variant Omicron BA.4 infected in African green monkey Vero E6 cells assessed as inhibition of virus titers of progeny virus in supernatant at 75 uM measured after 72 hrs by CPE assay relative to control. In kind it is functional. Conditions: Severe acute respiratory syndrome coronavirus 2, Omicron BA.4, Vero C1008.

Experiment [18] deals with SARS-CoV-2. Put plainly: Antiviral activity against SARS-CoV-2 variant Omicron BA.5 infected in African green monkey Vero E6 cells assessed as inhibition of virus titers of progeny virus in supernatant at 75 uM measured after 72 hrs by CPE assay relative to control. In kind it is functional. The note with it: Severe acute respiratory syndrome coronavirus 2, Omicron BA.5, Vero C1008.

For experiment [19], the system named is SARS-CoV-2. Nature of the experiment: Antiviral activity against SARS-CoV-2 variant Delta infected in African green monkey Vero E6 cells assessed as reduction in viral replication at 75 uM measured at 72 hrs post-infection by qRT-PCR analysis. In kind it is functional, organism-based. Conditions: Severe acute respiratory syndrome coronavirus 2. In general terms: Real-time PCR tracks product formation cycle by cycle.

Experiment [20] relates to SARS-CoV-2. Nature of the experiment: Antiviral activity against SARS-CoV-2 variant Omicron BA.1 infected in African green monkey Vero E6 cells assessed as reduction in viral replication at 75 uM measured at 72 hrs post-infection by qRT-PCR analysis. In kind it is functional, organism-based. The note with it: Severe acute respiratory syndrome coronavirus 2.
For experiment [21], the system named is SARS-CoV-2. Nature of the experiment: Antiviral activity against SARS-CoV-2 variant Omicron BA.2 infected in African green monkey Vero E6 cells assessed as reduction in viral replication at 75 uM measured at 72 hrs post-infection by qRT-PCR analysis. It counts as functional, organism-based. The note with it: Severe acute respiratory syndrome coronavirus 2.

Experiment [22] has as its system SARS-CoV-2. Put plainly: Antiviral activity against SARS-CoV-2 variant Omicron BA.3 infected in African green monkey Vero E6 cells assessed as reduction in viral replication at 75 uM measured at 72 hrs post-infection by qRT-PCR analysis. In kind it is functional, organism-based. The note with it: Severe acute respiratory syndrome coronavirus 2.
For experiment [23], the system named is SARS-CoV-2. Nature of the experiment: Antiviral activity against SARS-CoV-2 variant Omicron BA.4 infected in African green monkey Vero E6 cells assessed as reduction in viral replication at 75 uM measured at 72 hrs post-infection by qRT-PCR analysis. The note with it: Severe acute respiratory syndrome coronavirus 2. In kind it is functional, organism-based.

Experiment [24] concerns SARS-CoV-2. Nature of the experiment: Antiviral activity against SARS-CoV-2 variant Omicron BA.5 infected in African green monkey Vero E6 cells assessed as reduction in viral replication at 75 uM measured at 72 hrs post-infection by qRT-PCR analysis. It counts as functional, organism-based. The note with it: Severe acute respiratory syndrome coronavirus 2.

As to `C=C(C)[C@@H]1CCC(C)=C[C@H]1c1c(O)cc(CCCCC)c(C(=O)O)c1O` [CANNABIDIOLIC ACID], the IC50 in [1] was 47.5 µM; in [2] it was 47.7 µM; in [3], 31.7 µM; in [4] it was 35.1 µM; in experiment [5], 45.4 µM; in experiment [6] it was 30.7 µM. Besides, the outcome in experiment [7], in experiment [8], in experiment [9], in experiment [10], in experiment [11] and in experiment [12] was Active. The outcome in experiment [19], in [20], in experiment [21], in experiment [22], in [23] and in [24] was Active. The inhibition at 75 µM in [13], in [14], in [15], in experiment [16], in experiment [17] and in [18] was > 90% throughout.

One may read the IC50 as the point on the concentration scale where inhibition reaches its midpoint. Usually inhibition stands for the percentage by which the read-out fell short of the control.
